Data published in patent US20230116733A1, “NOVEL INDAZOLE DERIVATIVE AND USE THEREOF” (KOREA RESEARCH INSTITUTE OFCHEMICAL TECHNOLOGY, priority 2019, published 2023).
Structures can show the parent of a compound that is named as a salt. Where two headings read alike, the source gives them in different places.

Tests used:
A549 = assay: Assay for anticancer activity, cell viability (Cell Counting Kit-8); type: cell-based; settings: A549 cells, 10 μM compound, 3 days
Method: (§1) Assay for anticancer activity was conducted as follows. Corresponding cancer cells were seeded at a density of 4,000 cells/well into 96-well plates and stabilized for 24 hours. Thereafter, the cells in each well were treated with 10 μM of the each of the compounds for 3 days. Then, cell viability was assayed using Cell Counting Kit-8 from Dojindo.

HepG2 = assay: as above; type: cell-based; settings: HepG2 cells, 10 μM compound, 3 days
Method: as §1

TRIB2 = target: T1, TRIB2 (Homo sapiens, UniProt Q92519); assay: TRIB2 kinase activity assay (Eurofins, 33P-ATP filter binding); type: biochemical; parameters: purchased Eurofins
T1 sequence (Q92519 1-343): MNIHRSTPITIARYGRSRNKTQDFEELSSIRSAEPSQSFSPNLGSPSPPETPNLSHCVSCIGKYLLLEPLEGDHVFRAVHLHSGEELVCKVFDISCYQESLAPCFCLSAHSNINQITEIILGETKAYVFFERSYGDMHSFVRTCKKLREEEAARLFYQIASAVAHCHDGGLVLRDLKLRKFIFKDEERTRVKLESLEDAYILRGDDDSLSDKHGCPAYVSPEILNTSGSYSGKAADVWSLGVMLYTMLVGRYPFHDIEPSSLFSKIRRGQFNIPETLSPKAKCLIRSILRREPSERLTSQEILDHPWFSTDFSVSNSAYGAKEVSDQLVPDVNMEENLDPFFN
Method: TRIB2 kinase activity assay was conducted in Eurofins. […] Afterward, the reaction was terminated with 0.5% phosphoric acid.

[1] = human TRIB2, 15 μM gamma-33P-ATP, 120 minutes at room temperature, read-out: TRIB2 Kimase activity assay IC50

| IC50 (TRIB2; [1]) | Structure (SMILES) | Cell viability (% of Con. 10 μM) A549 (A549) | Cell viability (% of Con. 10 μM) HepG2 (HepG2) | IC50 (TRIB2) |
| --- | --- | --- | --- | --- |
| 1 to 10 nM | O=C(Nc1ccncc1)c1n[nH]c2ccc(-c3cnn(Cc4ccccc4)c3)cc12 [Compound 33, 5-(1-benzyl-1H-pyrazol-4-yl)-N-(pyridin-4-yl)-1H-indazole-3-carboxamide] | 20 % of Con. | – | – |
| 10 to 100 nM | CC(C)n1cc(-c2ccc3[nH]nc(C(=O)Nc4ccncc4)c3c2)cn1 [Compound 28, 5-(1-isopropyl-1H-pyrazol-4-yl)-N-(pyridin-4-yl)-1H-indazole-3-carboxamide] | 17 % of Con. | 16 % of Con. | – |
| 10 to 100 nM | O=C(Nc1ccncc1)c1n[nH]c2ccc(-c3ccc(N4CCNCC4)cc3)cc12 [Compound 46, 5-(4-(piperazin-1-yl)phenyl)-N-(pyridin-4-yl)-1H-indazole-3-carboxamide hydrochloride] | 58 % of Con. | 46 % of Con. | – |
| 10 to 100 nM | O=C(Nc1ccncc1)c1n[nH]c2ccc(-c3ccoc3)cc12 [Compound 34, 5-(furan-3-yl)-N-(pyridin-4-yl)-1H-indazole-3-carboxamide] | 51 % of Con. | 49 % of Con. | – |
| 10 to 100 nM | Cn1cc(-c2ccc3[nH]nc(C(=O)Nc4ccncc4)c3c2)cn1 [Compound 29, 5-(1-methyl-1H-pyrazol-4-yl)-N-(pyridin-4-yl)-1H-indazole-3-carboxamide] | 31 % of Con. | 16 % of Con. | – |
| 1 to 10 nM | O=C(Nc1ccc2c(c1)CCNC2)c1n[nH]c2ccc(-c3cccnc3F)cc12 [Compound 64, 5-(2-fluoropyridin-3-yl)-N-(1,2,3,4-tetrahydroisoquinolin-6-yl)-1H-indazole-3-carboxamide] | 8 % of Con. | 7 % of Con. | – |
| 1 to 10 nM | CCCn1cc(-c2ccc3[nH]nc(C(=O)Nc4ccncc4)c3c2)cn1 [Compound 36, 5-(1-propyl-1H-pyrazol-4-yl)-N-(pyridin-4-yl)-1H-indazole-3-carboxamide] | 28 % of Con. | 15 % of Con. | – |
| 10 to 100 nM | O=C(Nc1ccncc1)c1n[nH]c2ccc(-c3cn[nH]c3)cc12 [Compound 26, 5-(1H-pyrazol-4-yl)-N-(pyridin-4-yl)-1H-indazole-3-carboxamide] | 30 % of Con. | 24 % of Con. | – |
| 1 to 10 nM | CC1NCCc2ccc(NC(=O)c3n[nH]c4ccc(-c5cccnc5F)cc34)cc21 (stereo not drawn) [Compound 63, 5-(2-fluoropyridin-3-yl)-N-(1-methyl-1,2,3,4-tetrahydroisoquinolin-7-yl)-1H-indazole-3-carboxamide] | 4 % of Con. | 7 % of Con. | – |

More lines, now with the values behind:

| Structure (SMILES) | IC50 (TRIB2; [1]) | Cell viability (% of Con. 10 μM) A549 (A549) | Cell viability (% of Con. 10 μM) HepG2 (HepG2) | IC50 (TRIB2) |
| --- | --- | --- | --- | --- |
| O=Cc1cc2c(cc1-c1ccc3[nH]nc(C(=O)Nc4ccncc4)c3c1)OCO2 [Compound 52, 5-(6-formylbenzo[d][1,3]dioxol-5-yl)-N-(pyridin-4-yl)-1H-indazole-3-carboxamide] | – | 39 % of Con. | 32 % of Con. | 10 to 100 nM |
| O=C(NC1CCN(C(=O)C2CC2)CC1)c1nn(C(=O)C2CC2)c2ccc(-c3cccnc3F)cc12 [Compound 11, 1-(cyclopropanecarbonyl)-N-(1-(cyclopropanecarbonyl)piperidin-4-yl)-5-(2-fluoropyridin-3-yl)-1H-indazole-3-carboxamide] | 100 to 1000 nM | – | – | – |
| O=C(NCCN1CCOCC1)c1n[nH]c2ccc(-c3cccnc3F)cc12 [Compound 22, 5-(2-fluoropyridin-3-yl)-N-(2-morpholinoethyl)-1H-indazole-3-carboxamide] | 100 to 1000 nM | – | – | – |
| O=C(Nc1ccc2c(c1)CN(C(=O)C(F)(F)F)CC2)c1n[nH]c2ccc(-c3cccnc3F)cc12 [Compound 24, 5-(2-fluoropyridin-3-yl)-N-(2-(2,2,2-trifluoroacetyl)-1,2,3,4-tetrahydroisoquinolin-7-yl)-1H-indazole-3-carboxamide] | 1 to 10 nM | – | 10 % of Con. | – |
| CC1(C)Cc2ccc(NC(=O)c3n[nH]c4ccc(-c5cccnc5F)cc34)cc2CN1 [Compound 71, N-(3,3-dimethyl-1,2,3,4-tetrahydroisoquinolin-7-yl)-5-(2-fluoropyridin-3-yl)-1H-indazole-3-carboxamide] | 1 to 10 nM | 10 % of Con. | 9 % of Con. | – |
| O=C(NCc1ccncc1)c1n[nH]c2ccc(-c3cccnc3F)cc12 [Compound 51, 5-(2-fluoropyridin-3-yl)-N-(pyridin-4-ylmethyl)-1H-indazole-3-carboxamide] | 10 to 100 nM | 44 % of Con. | 37 % of Con. | – |
| N[C@H]1CC[C@H](NC(=O)c2n[nH]c3ccc(-c4cccnc4F)cc23)CC1 [Compound 19, N-((1r, 4r)-4-aminocyclohexyl)-5-(2-fluoropyridin-3-yl)-1H-indazole-3-carboxamide] | 100 to 1000 nM | – | – | – |
| O=C(NC1CCNC1)c1n[nH]c2ccc(-c3cccnc3F)cc12 (stereo not drawn) [Compound 20, 5-(2-fluoropyridin-3-yl)-N-(pyrrodin-3-yl)-1H-indazole-3-carboxamide] | 10 to 100 nM | – | – | – |
| Cn1ncc2c(NC(=O)c3n[nH]c4ccc(-c5cccnc5F)cc34)ccnc21 [Compound 65, 5-(2-fluoropyridin-3-yl)-N-(1-methyl-1H-pyrazolo[3,4-b]pyridin-4-yl)-1H-indazole-3-carboxamide] | 10 to 100 nM | 24 % of Con. | 28 % of Con. | – |
| O=C(Nc1ccc2c(c1)CN(C(=O)C(F)(F)F)CC2)c1nn(C2CCCCO2)c2ccc(-c3cccnc3F)cc12 (stereo not drawn) [Compound 53, 5-(2-fluoropyridin-3-yl)-1-(tetrahydro-2H-pyran-2-yl)-N-(2-(2,2,2-trifluoroacetyl)-1,2,3,4-tetrahydroisoquinolin-7-yl)-1H-indazole-3-carboxamide] | 1 to 10 nM | 13 % of Con. | 10 % of Con. | – |
| O=C(Nc1ccncc1)c1nn(C2CCCCO2)c2ccc(-c3cccnc3F)cc12 (stereo not drawn) [Compound 66, 5-(2-fluoropyridin-3-yl)-N-(pyridin-4-yl)-1-(tetrahydro-2H-pyran-2-yl)-1H-indazole-3-carboxamide] | – | 55 % of Con. | 11 % of Con. | 10 to 100 nM |
| O=C(N[C@H]1CC[C@H](O)CC1)c1n[nH]c2ccc(-c3cccnc3F)cc12 [Compound 16, 5-(2-fluoropyridin-3-yl)-N-((1r,4r)-4-hydroxycyclohexyl)-1H-indazole-3-carboxamide] | 100 to 1000 nM | – | – | – |
| N[C@H]1CC[C@@H](NC(=O)c2n[nH]c3ccc(-c4cccnc4F)cc23)CC1 [Compound 18, N-((1s, 4s)-4-aminocyclohexyl)-5-(2-fluoropyridin-3-yl)-1H-indazole-3-carboxamide] | 100 to 1000 nM | – | – | – |
| O=C(NC1CCN(C(=O)c2ccccc2)CC1)c1n[nH]c2ccc(-c3cccnc3F)cc12 [Compound 12, N-(1-benzoylpiperidin-4-yl)-5-(2-fluoropyridin-3-yl)-1H-indazole-3-carboxamide] | 10 to 100 nM | – | – | – |
| O=C(NC1CCN(C(=O)c2ccccc2)CC1)c1nn(C(=O)c2ccccc2)c2ccc(-c3cccnc3F)cc12 [Compound 10, 1-benzoyl-N-(1-benzoylpiperidin-4-yl)-5-(2-fluoropyridin-3-yl)-1H-indazole-3-carboxamide] | 10 to 100 nM | – | – | – |
| O=C(c1n[nH]c2ccc(-c3cccnc3F)cc12)N1CCc2ccccc2C1 [Compound 21, (3,4-dihydroisoquinolin-2-(1H)-yl)(5-(2-fluoropyridin-3-yl)-1H-indazol-3-yl)methanone] | 100 to 1000 nM | – | – | – |
| O=C(NC1CCCCC1)c1n[nH]c2ccc(-c3cccnc3F)cc12 [Compound 14, N-Cyclohexyl-5-(2-fluoropyridin-3-yl)-1H-indazole-3-carboxamide] | 100 to 1000 nM | – | – | – |
| O=C(NC1CCNCC1)c1n[nH]c2ccc(-c3ccnc(F)c3)cc12 [Compound 13, 5-(2-fluoropyridin-4-yl)-N-(piperidin-4-yl)-1H-indazole-3-carboxamide] | 10 to 100 nM | – | – | – |
